Patent US20180162862A1 (President and Fellows of Harvard College, priority 2015, published 2018)
Converted amounts (≈) assume the structure as drawn.

Key:
Assay type in all cases: cell-based
[1] = system: S. aureus ATCC 29213; test: MIC test according to CLSI M7-A9, S. aureus ATCC 29213; conditions: Staphylococcus aureus, ATCC29213; CLSI M7-A9, CAMHB, 24 h (Table 3); read-out: S. aureus ATCC 29213 MIC
Protocol: (§1) MIC Test (S. aureus ATCC 29213, S. aureus ATCC 43300 and S. aureus Newman)
(§2) Susceptibility testing of S. aureus ATCC 29213, ATCC 43300 and Newman was performed according to Clinical Laboratory Standard Institute (CLSI) guidelines M7-A9. Test articles were stored at room temperature prior to use, then dissolved in filtered sterile DMSO. Stock DMSO solutions were diluted further in cation-adjusted Mueller Hinton broth (CAMHB) to provide appropriate test concentrations. Cultures of S. aureus (ATCC 29213, ATCC 43300 or Newman) were added in accordance with CLSI guidelines and plates incubated at 37° C. in air for 24 h. Endpoints were determined visually (and by spectrophotometer at 600 nm) and the minimum inhibitory concentration (MIC) defined as the lowest concentration of test articles resulting in complete inhibition of visible bacterial growth. Results are detailed in Table 2 (S. aureus ATCC 29213 and ATCC 43300) and Table 3 (S. aureus ATCC 29213, ATCC 43300 and Newman).

[2] = system: S. aureus ATCC 43300; test: MIC test according to CLSI M7-A9, S. aureus ATCC 43300; conditions: Staphylococcus aureus, ATCC43300; CLSI M7-A9, CAMHB, 24 h (Table 3); read-out: S. aureus ATCC 43300 MIC
Protocol: as §1, §2

[3] = system: S. aureus Newman; test: MIC test according to CLSI M7-A9, S. aureus Newman; conditions: Staphylococcus aureus, CLSI M7-A9, CAMHB, 24 h (Table 3), read-out: S. aureus ATCC Newman MIC
Protocol: as §1, §2

Structure (SMILES)	MIC [1]	MIC [2]	MIC [3]
CC(C)(O)c1ccc(-c2nc(NCCCNC3Cc4ccccc4C3)n3[nH]c(=O)cc3n2)cc1 [Example 105, 4-({3-[(2,3-dihydro-1H-inden-2-yl)amino]propyl}amino)-2-[4-(2-hydroxypropan-2-yl)phenyl]-6H,7H-pyrazolo[1,5-a][1,3,5]triazin-7-one]	32 µg/mL (≈ 69.8 µM)	16 µg/mL (≈ 34.9 µM)	32 µg/mL (≈ 69.8 µM)
Cc1oc(C(C)(C)C)cc1-c1nc(NCCCNC2Cc3ccccc3C2)n2[nH]c(=O)cc2n1 [Example 94]	16 µg/mL (≈ 34.7 µM)	16 µg/mL (≈ 34.7 µM)	16 µg/mL (≈ 34.7 µM)
O=c1cc2nc(C34CC5CC(CC(C5)C3)C4)[nH]c(=S)n2[nH]1 [Example 99, 2-(adamantan-1-yl)-4-sulfanylidene-3H,4H,6H,7H-pyrazolo[1,5-a][1,3,5]triazin-7-one]	64 µg/mL (≈ 212 µM)	64 µg/mL (≈ 212 µM)	32 µg/mL (≈ 106 µM)
CN(C)CCCNc1nc(-c2ccc(C(C)(C)C)cc2)nc2cc(=O)[nH]n12 [Example 75, 2-(4-tert-butylphenyl)-4-{[3-(dimethylamino)propyl]amino}-6H,7H-pyrazolo[1,5-a][1,3,5]triazin-7-one]	32 µg/mL (≈ 86.8 µM)	32 µg/mL (≈ 86.8 µM)	32 µg/mL (≈ 86.8 µM)
Cc1oc(C(C)(C)C)cc1-c1nc(NCCCO)n2[nH]c(=O)cc2n1 [Example 93, 2-(5-tert-butyl-2-methylfuran-3-yl)-4-[(3-hydroxypropyl)amino]-6H,7H-pyrazolo[1,5-a][1,3,5]triazin-7-one]	32 µg/mL (≈ 92.6 µM)	32 µg/mL (≈ 92.6 µM)	16 µg/mL (≈ 46.3 µM)
CC(C)(C)c1ccc(-c2nc(NCCN3CCCCC3)n3[nH]c(=O)cc3n2)cc1 [Example 82, 2-(4-tert-butylphenyl)-4-{[2-(piperidin-1-yl)ethyl]amino}-6H,7H-pyrazolo[1,5-a][1,3,5]triazin-7-one]	64 µg/mL (≈ 162 µM)	64 µg/mL (≈ 162 µM)	32 µg/mL (≈ 81.1 µM)
CC(C)(C)c1ccc(-c2nc(NCCCNCc3ccccc3)n3[nH]c(=O)cc3n2)cc1 [Example 74, 4-{[3-(benzylamino)propyl]amino}-2-(4-tert-butylphenyl)-6H,7H-pyrazolo[1,5-a][1,3,5]triazin-7-one]	16 µg/mL (≈ 37.2 µM)	16 µg/mL (≈ 37.2 µM)	16 µg/mL (≈ 37.2 µM)
Cc1cc(OCCCN(CCO)c2nc(-c3ccc(C(C)(C)C)cc3)nc3cc(=O)[nH]n23)ccc1Cl [Example 85]	32 µg/mL (≈ 62.7 µM)	32 µg/mL (≈ 62.7 µM)	4 µg/mL (≈ 7.84 µM)
CC(=O)c1ccc(-c2nc(NCCCOc3ccc(Cl)c(C)c3)n3[nH]c(=O)cc3n2)cc1 [Example 104, 2-(4-acetylphenyl)-4-{[3-(4-chloro-3-methylphenoxy)propyl]amino}-6H,7H-pyrazolo[1,5-a][1,3,5]triazin-7-one]	32 µg/mL (≈ 70.8 µM)	32 µg/mL (≈ 70.8 µM)	32 µg/mL (≈ 70.8 µM)
O=c1cc2nc(C34CC5CC(CC(C5)C3)C4)nc(NCCCNC3Cc4ccccc4C3)n2[nH]1 [Example 101, 2-(adamantan-1-yl)-4-({3-[(2,3-dihydro-1H-inden-2-yl)amino]propyl}amino)-6H,7H-pyrazolo[1,5-a][1,3,5]triazin-7-one]	8 µg/mL (≈ 17.4 µM)	8 µg/mL (≈ 17.4 µM)	8 µg/mL (≈ 17.4 µM)
Cc1oc(C(C)(C)C)cc1-c1nc2cc(=O)[nH]n2c(=S)[nH]1 [Example 92, 2-(5-tert-butyl-2-methylfuran-3-yl)-4-sulfanylidene-3H,4H,6H,7H-pyrazolo[1,5-a][1,3,5]triazin-7-one]	32 µg/mL (≈ 105 µM)	16 µg/mL (≈ 52.6 µM)	8 µg/mL (≈ 26.3 µM)
CC(C)(O)CCNc1nc(-c2ccc(C(C)(C)C)cc2)nc2cc(=O)[nH]n12 [Example 80, 2-(4-tert-butylphenyl)-4-[(3-hydroxy-3-methylbutyl)amino]-6H,7H-pyrazolo[1,5-a][1,3,5]triazin-7-one]	32 µg/mL (≈ 86.6 µM)	64 µg/mL (≈ 173 µM)	32 µg/mL (≈ 86.6 µM)
CC(C)(C)c1ccc(-c2nc3c(Cc4ccccc4)c(=O)[nH]n3c(=S)[nH]2)cc1 [Example 106, 8-benzyl-2-(4-tert-butylphenyl)-4-sulfanylidene-3H,4H,6H,7H-pyrazolo[1,5-a][1,3,5]triazin-7-one]	2 µg/mL (≈ 5.12 µM)	2 µg/mL (≈ 5.12 µM)	1 µg/mL (≈ 2.56 µM)
CC(C)(C)c1ccc(-c2nc(NCCCO)n3[nH]c(=O)c(Cc4ccccc4)c3n2)cc1 [Example 107, 8-benzyl-2-(4-tert-butylphenyl)-4-[(3-hydroxypropyl)amino]-6H,7H-pyrazolo[1,5-a][1,3,5]triazin-7-one]	> 128 µg/mL	> 128 µg/mL	64 µg/mL (≈ 148 µM)
CC(C)(C)c1ccc(-c2nc(NCC(F)CNC3CCCCC3)n3[nH]c(=O)cc3n2)cc1 (stereo not shown) [Example 87, 2-(4-tert-butylphenyl)-4-{[3-(cyclohexylamino)-2-fluoropropyl]amino}-6H,7H-pyrazolo[1,5-a][1,3,5]triazin-7-one]	32 µg/mL (≈ 72.6 µM)	32 µg/mL (≈ 72.6 µM)	32 µg/mL (≈ 72.6 µM)
O=c1cc2nc(C34CC5CC(CC(C5)C3)C4)nc(NCCCO)n2[nH]1 [Example 100, 2-(adamantan-1-yl)-4-[(3-hydroxypropyl)amino]-6H,7H-pyrazolo[1,5-a][1,3,5]triazin-7-one]	32 µg/mL (≈ 93.2 µM)	32 µg/mL (≈ 93.2 µM)	16 µg/mL (≈ 46.6 µM)
CCCCCCCCCCCCCCCCNc1nc(-c2ccc(C(C)(C)C)cc2)nc2cc(=O)[nH]n12 [Example 73, 2-(4-tert-butylphenyl)-4-(hexadecylamino)-6H,7H-pyrazolo[1,5-a][1,3,5]triazin-7-one]	> 32 µg/mL	> 32 µg/mL	> 32 µg/mL
Cc1ccc(Cc2c(=O)[nH]n3c(NCCCN(C)C)nc(-c4ccc(C(C)(C)C)cc4)nc23)cn1 [Example 114, 2-(4-tert-butylphenyl)-4-{[3-(dimethylamino)propyl]amino}-8-[(6-methylpyridin-3-yl)methyl]-6H,7H-pyrazolo[1,5-a][1,3,5]triazin-7-one]	64 µg/mL (≈ 135 µM)		64 µg/mL (≈ 135 µM)
CC(C)(C)c1ccc(-c2nc(NCc3ccc(C#N)cc3)n3[nH]c(=O)cc3n2)cc1 [Example 84, 4-({[2-(4-tert-butylphenyl)-7-oxo-6H,7H-pyrazolo[1,5-a][1,3,5]triazin-4-yl]amino}methyl)benzonitrile]	16 µg/mL (≈ 40.2 µM)		8 µg/mL (≈ 20.1 µM)
Cc1ccc(Cc2c(=O)[nH]n3c(N4CCN(C)CC4)nc(-c4ccc(C(C)(C)C)cc4)nc23)cn1 [Example 117, 2-(4-tert-butylphenyl)-4-(4-methylpiperazin-1-yl)-8-[(6-methylpyridin-3-yl)methyl]-6H,7H-pyrazolo[1,5-a][1,3,5]triazin-7-one]	128 µg/mL (≈ 271 µM)		128 µg/mL (≈ 271 µM)
CC(C)(C)c1ccc(-c2nc(N3CCN(CCO)CC3)n3[nH]c(=O)cc3n2)cc1 [Example 77, 2-(4-tert-butylphenyl)-4-[4-(2-hydroxyethyl)piperazin-1-yl]-6H,7H-pyrazolo[1,5-a][1,3,5]triazin-7-one]	64 µg/mL (≈ 161 µM)		64 µg/mL (≈ 161 µM)
O=c1[nH]n2c(NCCCN3CCc4ccccc4C3)nc(C34CC5CC(CC(C5)C3)C4)nc2c1Cc1ccccc1 [Example 124, 2-(adamantan-1-yl)-8-benzyl-4-{[3-(1,2,3,4-tetrahydroisoquinolin-2-yl)propyl]amino}-6H,7H-pyrazolo[1,5-a][1,3,5]triazin-7-one]	128 µg/mL (≈ 233 µM)		2 µg/mL (≈ 3.64 µM)
CCCCN(CCCC)CCCNc1nc(-c2ccc(C(C)(C)C)cc2)nc2cc(=O)[nH]n12 [Example 78, 2-(4-tert-butylphenyl)-4-{[3-(dibutylamino)propyl]amino}-6H,7H-pyrazolo[1,5-a][1,3,5]triazin-7-one]	32 µg/mL (≈ 70.7 µM)		32 µg/mL (≈ 70.7 µM)
Cc1ccc(Cc2c(=O)[nH]n3c(NCCCNC4Cc5ccccc5C4)nc(-c4ccc(C(C)(C)C)cc4)nc23)cn1 [Example 116, 2-(4-tert-butylphenyl)-4-({3-[(2,3-dihydro-1H-inden-2-yl)amino]propyl}amino)-8-[(6-methylpyridin-3-yl)methyl]-6H,7H-pyrazolo[1,5-a][1,3,5]triazin-7-one]	4 µg/mL (≈ 7.12 µM)		4 µg/mL (≈ 7.12 µM)
CC(C)(C)c1nc(NCCCN2CCc3ccccc3C2)n2[nH]c(=O)cc2n1 [Example 97, 2-tert-butyl-4-{[3-(1,2,3,4-tetrahydroisoquinolin-2-yl)propyl]amino}-6H,7H-pyrazolo[1,5-a][1,3,5]triazin-7-one]	128 µg/mL (≈ 336 µM)		64 µg/mL (≈ 168 µM)
CCCCNc1nc(-c2ccc(C(C)(C)C)cc2)nc2c(Cc3c[nH]cn3)c(=O)[nH]n12 [Example 110, 4-(butylamino)-2-(4-tert-butylphenyl)-8-(1H-imidazol-4-ylmethyl)-6H,7H-pyrazolo[1,5-a][1,3,5]triazin-7-one]	4 µg/mL (≈ 9.53 µM)		2 µg/mL (≈ 4.77 µM)
CC(C)(C)c1nc(NCCCNC2Cc3ccccc3C2)n2[nH]c(=O)cc2n1 [Example 95, 2-tert-butyl-4-({3-[(2,3-dihydro-1H-inden-2-yl)amino]propyl}amino)-6H,7H-pyrazolo[1,5-a][1,3,5]triazin-7-one]	16 µg/mL (≈ 42.1 µM)		8 µg/mL (≈ 21 µM)
Cc1cc(OCCCN(CCCN(C)C)c2nc(-c3ccc(C(C)(C)C)cc3)nc3cc(=O)[nH]n23)ccc1Cl [Example 86, 2-(4-tert-butylphenyl)-4-{[3-(4-chloro-3-methylphenoxy)propyl][3-(dimethylamino)propyl]amino}-6H,7H-pyrazolo[1,5-a][1,3,5]triazin-7-one]	2 µg/mL (≈ 3.63 µM)		1 µg/mL (≈ 1.81 µM)
